Source: patent US8084399B2, “Process for screening of a binding amphiphilic peptides specific for hairpin RNA” (priority 2009, dated 2011)
Where no end group is shown, it is not given here. [ ]: non-standard residue; d: D form. Orn = NCCC[C@H](N)C(=O)O; Dab = NCC[C@H](N)C(=O)O; Dap = NC[C@H](N)C(=O)O

What was measured:
RRE hairpin RNA = test: Fluorescence anisotropy competition with Rev-N-rhodamine probe, binding to RRE hairpin RNA; design: species or system HIV; details: 20° C., pH 7.4, read-out: Dissociation constant, RRE
Description: (§1) Binding force to each target hairpin RNA (IRES, RRE, TAR and 16S A-site) was measured by fluorescence polarization using alanine scanned peptide library (1b-1h).
(§2) Particularly, […] of each target RNA was prepared at the concentration of 10 mM, which stood at 65° C. for 10 minutes and then cooled down slowly at room temperature, leading to folding. The amphiphilic peptide was prepared respectively at the concentration of […], which were maintained at 0° C. As a probe, rev peptide labeled with rhodamine (Rev-N-rhodamine) emitting […] fluorescence was prepared at the concentration of 10 mM. Buffer was composed of 140 mM NaCl, 5 mM KCl, 1 mM MgCl2, and 20 mM HEPES (N-2-Hydroxyethylpiperazine-N′-2-Ethanesulfonic Acid, pH 7.4). Fluorescence Anisotropy was measured using AMINCO-Bowman Series Luminescence Spectrometer at 20° C. Ten nM of the probe was added in […] of buffer, to which target RNA was added to induce interaction between the probe and the target RNA. At that time, anisotropy value increased. Then, the synthesized peptide competing with the probe for binding site was added thereto with increasing the concentration slowly. Changes of fluorescence polarization were measured until fluorescence polarization reached as low as the beginning. Considering the concentration and amount of the peptide added, binding force to target RNA was calculated. That is, the binding strength between target RNA and peptide was determined according to the following KaleidaGraph. [Peptide]=Kd(Amax−A)/[Kd(A−A0)+1]×[RNA]−Kd(A−A0)^2[Probe]0/(Amax−A)(Amax−A0)
(§3) Herein, [Peptide] indicates the concentration of peptide, [RNA] indicates the concentration of target RNA, and [Probe]0 indicates the concentration of probe. A is the value of fluorescence anisotropy of sample, Amax is the value of totally bound tracer, and A0 is the value of totally free tracer.

TAR hairpin RNA = test: Fluorescence anisotropy competition with Rev-N-rhodamine probe, binding to TAR hairpin RNA; design: species or system HIV; details: fluorescence anisotropy, 20° C., pH 7.4; read-out: Dissociation constant, TAR
Description: as §1, §2, §3

16S ribosomal RNA A-site = test: Fluorescence anisotropy competition with Rev-N-rhodamine probe, binding to 16S A-site; details: 20° C., pH 7.4, read-out: Dissociation constant, 16S A-site
Description: as §1, §2, §3

IRES domain IV hairpin = test: Fluorescence anisotropy competition with Rev-N-rhodamine probe, binding to IRES hairpin; design: species or system HCV; details: for differentiation coefficient (IRES): (mean Kd to other hairpin RNA)/(Kd to one hairpin RNA); for binding strength to IRES, in words: compared with the original peptide; for Kd: fluorescence anisotropy, 20° C., pH 7.4, read-out: Dissociation constant, IRES
Description: as §1, §2, §3

[1] = Circular dichroism (CD), percentage of alpha-helix; type: physicochemical; details: CD at 20° C., condition not given; for Alpha-helical rate (%), second value of pair: value after the slash; for Alpha-helical rate (%), first value of pair: value before the slash
Description: To investigate alpha-helix of the amphiphilic peptide (1a-1h), circular dichroism (CD) was performed. Particularly, CD was measured at 20° C. by using JASCO model J715 spectropolarimeter. Scanning was performed at 190-250 nm three times (bandwidth: 1 nm, datapitch: 0.5 nm, speed: 100 nm/min), which were averaged to obtain CD data. Spectrum was corrected by measuring background spectrum. CD signal was recorded after modulating thereof with mean residue ellipticity [Q]. Percentage (%) of alpha-helix(fn) was calculated by the following formula. [Q]=Qobs[MRW/(10lc)]
MRW=mean residue weight (dividing molecular weight by the number of peptide bond, l=pathway length (cm), c=concentration (mg/mL). fn=([Q]222−[Q]coil)/([Q]helix−[Q]coil) [Q]helix=−40,000[…]+100t [Q]coil=640−45t
[Q]222=mean residue ellipticity at 222 nm (deg cm2 mol-1), [Q]helix=ellipticity of peptide having complete helical structure, [Q]coil=ellipticity of peptide having complete random coil structure, n=number of amino acid, t=° C.

Substance | Kd (RRE hairpin RNA) | Kd (TAR hairpin RNA) | Kd (16S ribosomal RNA A-site) | differentiation coefficient (IRES) (IRES domain IV hairpin) | binding strength to IRES, in words (IRES domain IV hairpin) | Kd (IRES domain IV hairpin) | Alpha-helical rate (%), second value of pair [1] | Alpha-helical rate (%), first value of pair [1]
LKKLLKLLAKLLKLKG [1e, alanine scanned first generation peptide] | 130 nM | 74 nM | 180 nM | 1.1 | reduced binding strength | 120 nM | 43% | 12%
LKKLLKLWKKLLKLAG [2r, tryptophan scanned second generation peptide] | 37 nM | 82 nM | 65 nM | 0.75 | – | 92 nM | 59% | 14%
LKKLLOrnLLKKLLKLAG (LKKLL[Orn]LLKKLLKLAG-NH2; N-terminus assumed; SMILES CC(C)C[C@H](NC(=O)[C@H](CCCCN)NC(=O)[C@H](CC(C)C)NC(=O)[C@H](CC(C)C)NC(=O)[C@H](CCCCN)NC(=O)[C@H](CCCCN)NC(=O)[C@H](CC(C)C)NC(=O)[C@H](CC(C)C)NC(=O)[C@H](CCCN)NC(=O)[C@H](CC(C)C)NC(=O)[C@H](CC(C)C)NC(=O)[C@H](CCCCN)NC(=O)[C@H](CCCCN)NC(=O)[C@@H](N)CC(C)C)C(=O)N[C@@H](C)C(=O)NCC(N)=O) [2a, second generation peptide, hydrophilic face modified] | 17 nM | 14 nM | 15 nM | 2.5 | – | 6.1 nM | 82% | 13%
LKKLLKLLKKLLDapLAG (LKKLLKLLKKLL[Dap]LAG-NH2; N-terminus assumed; SMILES CC(C)C[C@H](NC(=O)[C@H](CN)NC(=O)[C@H](CC(C)C)NC(=O)[C@H](CC(C)C)NC(=O)[C@H](CCCCN)NC(=O)[C@H](CCCCN)NC(=O)[C@H](CC(C)C)NC(=O)[C@H](CC(C)C)NC(=O)[C@H](CCCCN)NC(=O)[C@H](CC(C)C)NC(=O)[C@H](CC(C)C)NC(=O)[C@H](CCCCN)NC(=O)[C@H](CCCCN)NC(=O)[C@@H](N)CC(C)C)C(=O)N[C@@H](C)C(=O)NCC(N)=O) [2i, second generation peptide, hydrophilic face modified] | 23 nM | 8.4 nM | 20 nM | 12 | – | 1.4 nM | 54% | 39%
LKKLLDabLLKKLLKWAG (LKKLL[Dab]LLKKLLKWAG-NH2; N-terminus assumed; SMILES CC(C)C[C@H](NC(=O)[C@H](CC(C)C)NC(=O)[C@H](CCCCN)NC(=O)[C@H](CCCCN)NC(=O)[C@H](CC(C)C)NC(=O)[C@H](CC(C)C)NC(=O)[C@H](CCN)NC(=O)[C@H](CC(C)C)NC(=O)[C@H](CC(C)C)NC(=O)[C@H](CCCCN)NC(=O)[C@H](CCCCN)NC(=O)[C@@H](N)CC(C)C)C(=O)N[C@@H](CCCCN)C(=O)N[C@@H](Cc1c[nH]c2ccccc12)C(=O)N[C@@H](C)C(=O)NCC(N)=O) [3e, third generation peptide, both faces modified] | 22 nM | 14 nM | 16 nM | 28 | – | 0.62 nM | 45% | 39%
WKKLLKLLKKLLKLAG [2n, tryptophan scanned second generation peptide] | 2.5 nM | 2 nM | 0.76 nM | 2.4 | significantly increased | 0.74 nM | 65% | 48%
